#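 1) Cells in 96-well plates. 2) Compound, 48 h, 5 concentrations. 3) Linear interpolation between surrounding doses. 4) Unreached endpoint = highest concentration. GI50 marks 50% less growth.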 The source made the active and inactive calls. No stated cut-off is given here; in the data, active = GI50 up to about 1.1 µM and inactive = higher.
# Assays:
# Test in all cases: NCI-60 cell line screen, 48 h
# NCI-H23 = tested on: NCI-H23
# PC-3 = tested on: PC-3
# HL-60 = tested on: HL-60
# LOX IMVI = tested on: LOX IMVI
# SR = tested on: SR
# SF-539 = tested on: SF-539
# HT-29 = tested on: HT-29
# HCT-15 = tested on: HCT-15
# UACC-257 = tested on: UACC-257
# NCI-H460 = tested on: NCI-H460
# 786-0 = tested on: 786-0
# CAKI-1 = tested on: CAKI-1
# ACHN = tested on: ACHN
# MDA-MB-231 = tested on: MDA-MB-231
# HCT-116 = tested on: HCT-116
# K562 = tested on: K562
# IGROV-1 = tested on: IGROV-1
# KM12 = tested on: KM12
SMILES,GI50 (NCI-H23),GI50 (PC-3),GI50 (HL-60),GI50 (LOX IMVI),GI50 (SR),GI50 (SF-539),GI50 (HT-29),GI50 (HCT-15),GI50 (UACC-257),GI50 (NCI-H460),GI50 (786-0),GI50 (CAKI-1),GI50 (ACHN),GI50 (MDA-MB-231),GI50 (HCT-116),GI50 (K562),GI50 (IGROV-1),GI50 (KM12)
Cn1c(=O)c2[nH]c(CCC(=O)O)nc2n(C)c1=O,> 100 µM (inactive),> 100 µM (inactive),> 100 µM (inactive),> 100 µM (inactive),> 100 µM (inactive),> 100 µM (inactive),> 100 µM (inactive),> 100 µM,> 100 µM (inactive),> 100 µM (inactive),> 100 µM (inactive),> 100 µM (inactive),> 100 µM (inactive),> 100 µM (inactive),> 100 µM (inactive),> 100 µM (inactive),> 100 µM (inactive),> 100 µM (inactive)
O=C(O)c1ccccc1NC(c1ccccc1)c1ccc2cccnc2c1O (stereo not drawn),12.6 µM (inactive),9.04 µM (inactive),1.2 µM (inactive),7.96 µM (inactive),2.06 µM (inactive),5.14 µM (inactive),4.4 µM (inactive),4.42 µM,14 µM (inactive),4.03 µM (inactive),4.39 µM (inactive),9.44 µM (inactive),9.18 µM (inactive),12.1 µM (inactive),3.65 µM (inactive),8.87 µM (inactive),20.4 µM (inactive),5.31 µM (inactive)
CO[C@@]12C[C@H](CNC(=O)c3ccc[nH]3)O[C@@H]1NC(=O)N2,> 100 µM (inactive),> 100 µM (inactive),> 100 µM (inactive),> 100 µM (inactive),> 100 µM (inactive),> 100 µM (inactive),> 100 µM (inactive),> 100 µM,> 100 µM (inactive),> 100 µM (inactive),> 100 µM (inactive),> 100 µM (inactive),> 100 µM (inactive),> 100 µM (inactive),> 100 µM (inactive),> 100 µM (inactive),> 100 µM (inactive),> 100 µM (inactive)
Clc1ccc(/C=c2\nc(-c3ccccc3)n3c2nc2ccccc23)cc1,> 100 µM (inactive),19.1 µM (inactive),> 100 µM (inactive),> 100 µM (inactive),> 100 µM (inactive),22.4 µM (inactive),> 100 µM (inactive),> 100 µM,> 100 µM (inactive),> 100 µM (inactive),56.8 µM (inactive),51.4 µM (inactive),21.9 µM (inactive),61.5 µM (inactive),> 100 µM (inactive),> 100 µM (inactive),> 100 µM (inactive),> 100 µM (inactive)
O=[N+]([O-])c1ccc(CN(CCCl)OCCCl)cc1,76.7 µM (inactive),26.8 µM (inactive),40 µM (inactive),55.7 µM (inactive),65 µM (inactive),> 100 µM (inactive),> 100 µM (inactive),91 µM,70.1 µM (inactive),> 100 µM (inactive),> 100 µM (inactive),64.9 µM (inactive),64.3 µM (inactive),> 100 µM (inactive),80.7 µM (inactive),33.8 µM (inactive),75.9 µM (inactive),> 100 µM (inactive)
Clc1ccc(/N=C/C=C/Nc2ccc(Cl)cn2)nc1,16.9 µM (inactive),14.5 µM (inactive),2.12 µM (inactive),7.73 µM (inactive),2.78 µM (inactive),17.3 µM (inactive),7.8 µM (inactive),1.76 µM,17.1 µM (inactive),16 µM (inactive),5.65 µM (inactive),9.82 µM (inactive),12.6 µM (inactive),5 µM (inactive),12.2 µM (inactive),7.66 µM (inactive),15 µM (inactive),8.53 µM (inactive)
BrC1=C(Br)C2(SCCS2)[C@H]2C[C@@H]1c1ccccc12,33.9 µM (inactive),95.5 µM (inactive),20.9 µM (inactive),43.7 µM (inactive),9.4 µM (inactive),41.3 µM (inactive),10.2 µM (inactive),17.8 µM,52.6 µM (inactive),33.5 µM (inactive),58.3 µM (inactive),> 91.2 µM (inactive),> 44 µM (inactive),60.8 µM (inactive),13.1 µM (inactive),9.12 µM (inactive),55 µM (inactive),11.6 µM (inactive)
Nc1c2ccccc2nc2c1ccc1ncccc12,17.4 µM (inactive),16.3 µM (inactive),4.32 µM (inactive),6.03 µM (inactive),12.2 µM (inactive),14.7 µM (inactive),11.5 µM (inactive),14.2 µM,28.8 µM (inactive),5.83 µM (inactive),9.79 µM (inactive),25.7 µM (inactive),5.38 µM (inactive),20.8 µM (inactive),5.22 µM (inactive),12.5 µM (inactive),12.9 µM (inactive),15.1 µM (inactive)
CCOC(=O)c1ccc(OCc2nc3cc(C(F)(F)F)ccc3nc2-c2ccccc2)cc1,> 100 µM (inactive),> 100 µM (inactive),> 100 µM (inactive),> 100 µM (inactive),42.1 µM (inactive),> 100 µM (inactive),> 100 µM (inactive),> 100 µM,> 100 µM (inactive),97.9 µM (inactive),> 100 µM (inactive),> 100 µM (inactive),> 100 µM (inactive),> 100 µM (inactive),> 100 µM (inactive),74.3 µM (inactive),> 100 µM (inactive),> 100 µM (inactive)
COc1ccc(C(SC2C(O)C(CO)OC2n2ccc(N)nc2=O)(c2ccccc2)c2ccc(OC)cc2)cc1 (stereo not drawn),22.2 µM (inactive),16.4 µM (inactive),26.9 µM (inactive),17.7 µM (inactive),12.4 µM (inactive),18.7 µM (inactive),16.9 µM (inactive),17.8 µM,18.6 µM (inactive),12.1 µM (inactive),16.8 µM (inactive),31.3 µM (inactive),31.3 µM (inactive),16 µM (inactive),14.9 µM (inactive),26.4 µM (inactive),21.9 µM (inactive),19.7 µM (inactive)
N/N=C(\Nc1ccccc1)SCc1ccccc1,> 100 µM (inactive),> 100 µM (inactive),> 100 µM (inactive),> 100 µM (inactive),> 100 µM (inactive),> 100 µM (inactive),> 100 µM (inactive),> 100 µM,> 100 µM (inactive),> 100 µM (inactive),> 100 µM (inactive),> 100 µM (inactive),> 100 µM (inactive),> 100 µM (inactive),> 100 µM (inactive),> 100 µM (inactive),> 100 µM (inactive),> 100 µM (inactive)
Cc1cc2c(cc1Cl)SC(c1ccccc1O)NS2(=O)=O (stereo not drawn),70.6 µM (inactive),68.5 µM (inactive),59.7 µM (inactive),43.8 µM (inactive),16.4 µM (inactive),48.8 µM (inactive),45.4 µM (inactive),19.4 µM,53 µM (inactive),92 µM (inactive),34.7 µM (inactive),50.6 µM (inactive),52.8 µM (inactive),32.4 µM (inactive),27.5 µM (inactive),27.7 µM (inactive),42.4 µM (inactive),94 µM (inactive)
O=C(NCCCl)N(O)C(=O)Nc1ccccc1,> 100 µM (inactive),> 100 µM (inactive),> 100 µM (inactive),> 100 µM (inactive),> 100 µM (inactive),> 100 µM (inactive),> 100 µM (inactive),> 100 µM,> 100 µM (inactive),> 100 µM (inactive),> 100 µM (inactive),> 100 µM (inactive),> 100 µM (inactive),67.8 µM (inactive),> 100 µM (inactive),> 100 µM (inactive),> 100 µM (inactive),> 100 µM (inactive)
O=C(NNc1cn[nH]c(=O)n1)c1cccc2nc3ccccc3nc12,45.6 µM (inactive),> 100 µM (inactive),22.4 µM (inactive),38.8 µM (inactive),10.7 µM (inactive),46.7 µM (inactive),> 100 µM (inactive),> 100 µM,> 100 µM (inactive),> 100 µM (inactive),45.2 µM (inactive),46.6 µM (inactive),23.3 µM (inactive),26.5 µM (inactive),> 100 µM (inactive),47.9 µM (inactive),38.2 µM (inactive),> 100 µM (inactive)
S=C(N/N=C(\C(=N/NC(=S)N1CCCCC1)c1ccccn1)c1ccccn1)N1CCCCC1,44.8 µM (inactive),35.1 µM (inactive),1.12 µM (active),20.2 µM (inactive),> 100 µM (inactive),35.4 µM (inactive),61 µM (inactive),6.87 µM,54.1 µM (inactive),14 µM (inactive),36.5 µM (inactive),73.6 µM (inactive),6.84 µM (inactive),> 100 µM (inactive),15.5 µM (inactive),32.5 µM (inactive),48.8 µM (inactive),51.8 µM (inactive)
O=C1NC2(CCN(CCc3ccccc3)CC2)Oc2ccccc21,64 µM (inactive),33.9 µM (inactive),40.4 µM (inactive),53.7 µM (inactive),52.7 µM (inactive),> 100 µM (inactive),38 µM (inactive),46.3 µM,37.8 µM (inactive),> 100 µM (inactive),> 100 µM (inactive),> 100 µM (inactive),84.7 µM (inactive),88.3 µM (inactive),55.2 µM (inactive),32.5 µM (inactive),> 100 µM (inactive),54.7 µM (inactive)
